# Measured values reported in patent US8597645B2, “Cancer treatment with endothelin receptor antagonists” (New York University, priority 1999, dated 2013).
# Read-outs that look alike come from different tables or passages of the source. Where a SMILES comes first, the peptide text is derived from it.
# Legend:
# [1] = test system: caspases (E-cadherin, β-catenin, p120CTN read-out) in SKMEL28 and FM2030 cells; test: Cell permeable caspase inhibitors on down-regulation of E-cadherin and catenins by ET-1; assay type: cell-based, human; settings: inhibitors added 34 hours post ET-1, harvested at 40 hours
# Protocol: (§1) All caspase inhibitors contained a 16 amino-acid signal peptide derived from Kaposi Fibroblast Growth Factor to confer cell permeability (Calbiochem). Inhibitors were added to cells 34 hours post ET-1 stimulation and cells harvested at 40 hours. Crude cytoplasmic fractions were prepared as described for FIG. 2, except that supernatants containing cytoplasmic proteins were transferred to new tubes, supplemented with 0.11 volumes of buffer B (0.3M HEPES pH 7.9, 1.4M KCl, 0.03M MgCl2) and clarified by centrifugation. 10 ug of protein per sample was analyzed for caspase activation. Antibodies: Anti-caspase-8 antibody (UBI), Anti-caspase-3 and 7 (Transduction labs). Super Signal West Femto Maximum Sensitivity Substrate (PIERCE) was used for chemiluminescent detection of caspase proteins. Membranes were initially developed in a 1:5 dilution of the reagent made in H2O. If necessary, blots were briefly rinsed in TBS (10 mM Tris pH 8.0, 150 mM NaCl) and redeveloped with undiluted reagent for visualization of small fragments.
# To determine whether caspase activation played a role in down-regulation of E-cadherin by ET-1, the assay was repeated in the presence of cell permeable inhibitors of a variety of different caspases (FIG. 3A). […]
# [2] = test system: E-cadherin protein levels in melanocytes (FM2030) and melanoma cells (SKMEL28); test: Down-regulation of E-cadherin by ET-1, immunoblot analysis of lysates; assay type: cell-based, human; settings: for blocking of E-cadherin down-regulation by ET-1: antagonist 100 nM added one hour before 10 nM ET-1, 40 hours
# Protocol: A375, WM-266-4 and WM-1 15 melanoma cells were purchased from the ATCC. Culture conditions were as described in I. M. Shih, et al., Am. J. Pathol., 145:837-45 (1994). Two weeks prior to ET-stimulation, water soluble 12,13-phorbol dibutyrate was substituted for phorbol 12-myristate, 13-acetate in melanocyte medium. ET stimulations of melanocytes were carried out in phorbol-free medium. Cell pellets were incubated for 15 minutes in 6 pellet volumes of RIPA buffer (1% NP4O, 0.5% deoxycholic acid, 10 mM Tris pH 8.3, 150 mM NaCl, 50 mM NaF, 0.2 mM sodium vanadate, 1× protease inhibitors-Boehringer complete). After centrifugation, lysates were quantitated using protein assay reagent (Biorad). 2.5 ug of protein per sample were subjected to SDS-PAGE unless samples were prepared from A375, WM-266-4 or WM-1 15 cells in which case 100 ug protein per sample was used. BQ123 and BQ788 at 100 nM were added to cells one hour before ET-1 addition. Antibodies: anti-E-cadherin (Transduction labs), anti-mouse IgG-HRP (Santa-Cruz). ECL detection system (Amersham). ET-1, ET-3, BQ123, BQ788 (Peninsula labs).
# Human neonatal melanocytes (FM2030) and human melanoma cells (SKMEL28) were stimulated with 10 nM ET-1 over a 40 hour time course and protein lysates were examined for E-cadherin protein levels by immunoblot analysis (FIG. 1A). […] E-cadherin protein levels returned to baseline by 72 hours. A delayed and prolonged response to ET-1 has also been reported in other cell types. R. Marsault, et al., Biochem. Biophys. Res. Commun., 179:1408-3 (1991). […] In addition to E-cadherin, expression of the adhesion molecules ICAM 1, CD44 and N-cadherin is altered during melanoma development. M. Y. Hsu, et al., J. Investig. Dermatol. Symp. Proc., 1:188-94 (1996); S. Vermeulen, et al., Pathol. Res. Pract, 192:694-707 (1996).
# There are two well characterized ET-1 receptors, an A subtype (ETA) and a B subtype (ETB). A. G. Baynash, et al., Cell, 79:1277 85 (1994). Both subtypes are expressed by melanocytes while most melanoma cells express only ETB. ET-1 binds with equal affinity to both receptor subtypes. G. Imokawa, et al., Biochem. J., 314:305-12 (1996). To determine which subtype mediated the observed response, the assay was repeated in the presence of a selective ETA antagonist (BQ123) and a selective ETB antagonist (BQ788).
# [3] = test system: ETB receptors; settings: cited from earlier work; for inhibition of 125I-labeled ET-1 binding: non cardiovascular tissues: kidney, adrenal gland, cerebellum
# [4] = target: ETA receptors; settings: cited from earlier work; for IC50: read-out: IC50, inhibition of 125I-labeled ET-1 binding
# [5] = test system: β-catenin and p120CTN protein levels in melanocytes and melanoma cells; test: Down-regulation of β-catenin and p120CTN by ET-1, immunoblot of crude membrane fractions; assay type: cell-based, human
# Protocol: To analyze membrane-associated catenin proteins, crude membrane fractions were prepared as follows: cell pellets were resuspended in 6 pellet volumes of buffer A (10 mM HEPES pH 7.5, 1.5 mM MgCl2, 10 mM KCl, 10 mM NaF, 0.2 mM sodium vanadate, 1× protease inhibitors-Boehringer complete) and allowed to swell for 10 min. Cell membranes were disrupted by vortexing for 10 s and membranes pelleted by centrifugation for 10 s. Supernatants containing cytoplasmic proteins were discarded. Membrane pellets were solubilized in RIPA buffer as described above and snap frozen on dry ice. 0.5 ug and 2.5 ug of protein lystes were used to examine levels of β-catenin and p120^CTN proteins respectively. Antibodies: anti-β-catenin and anti-p120^CTN (Transduction labs).
# The catenins are cytoplasmic proteins that bind E-cadherin and are critical for E-cadherin function in cellular adhesion. J. M. Daniel, et al., Bloessays, 19: 883-91 (1997). Considering the importance of the catenins in E-cadherin function, the effect of ET-1 stimulation upon the levels of these proteins was studied. In both melanocytes and melanoma cells, ET-1 stimulation decreased β-catenin protein levels and increased its electrophoretic mobility (FIG. 2A). The kinetics of this response correlated well with those of E-cadherin down-regulation. BQ788, a selective ETB antagonist, blocked ET-1 mediated down-regulation of β-catenin (FIG. 2B).
# [6] = test system: caspase-8, caspases-3 and 7 in FM2030 and SKMEL28 cells; test: Caspase activation by ET-1, immunoblot of crude cytoplasmic extracts; assay type: cell-based, human
# Protocol: as §1
# To determine whether caspase activation played a role in down-regulation of E-cadherin by ET-1, the assay was repeated in the presence of cell permeable inhibitors of a variety of different caspases (FIG. 3A). Strikingly, inhibitors containing the sequences IETD (inhibition of caspase-8) (SEQ ID NO:1) and DEVD (inhibition of caspases-3, 7, 8) (SEQ ID NO:2) were able to block down-regulation of E-cadherin by ET-1. The ‘DEVD’ (SEQ ID NO:2) inhibitor required a 10 fold higher concentration than the ‘IETD’ (SEQ ID NO:1) inhibitor in order to be effective (FIG. 3A. lower panel). Inhibitors specific for caspases 1, 4, 5, 6, 9 and 10 were without effect. […] Timepoints of maximal E-cadherin down-regulation coincided with the appearance of catalytically active caspase-8 subfragments (FIG. 3C, lower panel). Treatment of cells with a cell permeable inhibitor of caspase-8 prevented its proteolytic processing providing further evidence that caspase-8 activation is required for down-regulation of E-cadherin, β-catenin and p120^CTN by ET-1.
# [7] = test system: isolated vascular strips; settings: read-out: EC50 as contractile agent; cited from earlier work
# [8] = test system: melanocytes and melanoma cells; test: Immunofluorescence: subcellular localization of E-cadherin and β-catenin after ET-1; assay type: cell-based, human; settings: 10 nM ET-1, 96 hours
# Protocol: Cells were seeded onto collagen coated glass chamber slides in medium supplemented with 10 nM ET-1. At 48 hours, medium was aspirated and replaced with fresh ET-1 supplemented medium. At 96 hours, cells were fixed for 10 minutes in 3.7% formaldehyde/1 mM CaCl2/PBS, permeabilized for 10 minutes in 0.2% Triton X-100/PBS and blocked in 1% BSA/PBS for 10 minutes. Staining with E-cadherin and β-catenin antibodies diluted 1:50 in blocking buffer was performed for 45 minutes followed by a 30 minute incubation with goat-anti-mouse IgG-Cy3 (Jackson Immunoresearch labs) diluted 1:200 in blocking buffer. Cells were washed with PBS in between permeabilization and fixation steps and after antibody incubations.
# [9] = ET-1 stimulation, melanocytes and melanoma cells
compound,measurement,setting,value
IETD,blocking of down-regulation of E-cadherin by ET-1,[1],able to block
"ET-3: ET isopeptide, a selective ETB agonist",down-regulation of E-cadherin by ET-3,"[2]; 10 nM ET-3, 40 hours",potent down-regulator
same,inhibition of 125I-labeled ET-1 binding,[3],inhibited to the same extent
cyclo(D-Glu-L-Ala-allo-D-Ile-L-Leu-D-Trp) [BE-18257B],IC50,[4]; aortic smooth muscle,1.4 µM
same,IC50,[4]; cultured aortic smooth muscle cells,0.5 µM
same,IC50,[4]; ventricle membranes,0.8 µM
same,IC50,"[3]; tissues in which ETB receptors predominate, read-out: concentration up to which binding is not inhibited",> 100 µM
CCCC[C@@H](NC(=O)[C@@H](Cc1cn(C(=O)OC)c2ccccc12)NC(=O)[C@H](CC(C)(C)C)NC(=O)N1[C@H](C)CCC[C@@H]1C)C(=O)O [BQ788],blocking of E-cadherin down-regulation by ET-1,[2],blocked
same,blocking of ET-1 mediated down-regulation of β-catenin,[5]; ETB antagonist with ET-1,blocked
ET-1: 21 amino-acid peptide secreted by keratinocytes; binds ETA and ETB,potency of inhibition of 125I-labeled ET-1 binding relative to ET-3,[4]; cardiovascular tissues,forty to seven hundred times more potently
same,E-cadherin protein level after ET-1 stimulation,"[2]; 10 nM ET-1, by 40 hours, FM2030 and SKMEL28",marked decrease
same,time at which E-cadherin protein levels returned to baseline,"[2]; 10 nM ET-1, FM2030 and SKMEL28",≤ 72 h
same,dose response of E-cadherin down-regulation,"[2]; 0.5, 1.0, 10 nM ET-1, 40 hours, melanocytes and melanoma cells",dose responsive
same,"protein levels of adhesion molecules ICAM 1, CD44 and N-cadherin",[2]; immunoblot of lysates after ET-1,no effect
same,E-cadherin mRNA levels,[2]; northern blot analysis,no ET-1 dependent decrease
same,down-regulation of E-cadherin in additional cell lines,[2]; one additional melanocyte line (CL-NHEM) and 4 additional melanoma lines,down-regulation of E-cadherin was observed in all lines except in A375 and WM 115
same,activation of distal caspases (caspases-3 and 7),[6]; SKMEL28 and FM2030 cells,failure of ET-1 to activate distal caspases
same,duration of ET-1 dependent proteolytic processing of caspase-8,[6]; after ET-1 stimulation,46 h
same,time at which ET-1 dependent proteolytic processing of caspase-8 was first detectable,[6]; after ET-1 stimulation,approximately 36 hours
same,induction of apoptosis,[6]; melanocytes and melanoma cells,failure to induce apoptosis
same,EC50,[7],0.0004 µM
same,p120CTN protein level and electrophoretic mobility,[5]; ET-1 stimulation,down-regulated and increased the electrophoretic mobility
same,β-catenin electrophoretic mobility,[5]; [9],increased
same,β-catenin protein levels,[5]; [9],decreased
same,β-catenin mRNA levels,[5]; northern blot analysis,failed to reveal an ET-1 dependent decrease
same,E-cadherin staining in melanocytes,[8],loss of concentration of E-cadherin staining at points of cell:cell contact
same,E-cadherin staining in melanoma cells,[8],markedly decreased intensity of membranous staining
same,β-catenin staining in melanocytes,[8],loss of concentration of β-catenin at lateral cell borders and at points of cell: cell contact
same,β-catenin staining in melanoma cells,[8],loss of most of the membranous staining
same,melanocyte morphology,[8]; bright field micrographs,"large nuclei with prominent nucleoli, abundant cytoplasm, polygonal morphology"
same,inhibition of 125I-labeled ET-1 binding,[3],inhibited to the same extent
"CC(C)C[C@@H]1NC(=O)[C@@H](C(C)C)NC(=O)[C@@H]2CCCN2C(=O)[C@@H](CC(=O)O)NC(=O)[C@@H](Cc2c[nH]c3ccccc23)NC1=O [BQ123, cyclo(D-Asp-Pro-D-Val-Leu-D-Trp)] (HELM PEPTIDE1{L.[dW].[dD].P.[dV]}$PEPTIDE1,PEPTIDE1,1:R1-5:R2$$$V2.0)",blocking of E-cadherin down-regulation by ET-1,[2],not
